In brackets after ≈: the same amount, converted by molar mass. Bridge positions count the residues as written; N and C are the ends. Square brackets hold non-standard residues; d marks the D form. Peptide text beside a SMILES is read from it. S5 = C=CCCC[C@](C)(N)C(=O)O
Legend:
Assay type in all cases: functional
[1] = system: Staphylococcus aureus; assay: Antibacterial activity against Staphylococcus aureus ATCC 25923 assessed as inhibition of bacterial growth measured after 24 hrs by broth microdilution method
[2] = system: Klebsiella pneumoniae; assay: Antibacterial activity against Klebsiella pneumoniae ATCC 13883 assessed as inhibition of bacterial growth measured after 24 hrs by broth microdilution method
[3] = system: Pseudomonas aeruginosa; assay: Antibacterial activity against Pseudomonas aeruginosa PAO1 assessed as inhibition of bacterial growth measured after 24 hrs by broth microdilution method

| MIC [1] | MIC [2] | MIC [3] | SMILES |
| --- | --- | --- | --- |
| 12.5 µM (≈ 50.3 µg/mL) | 6.25 µM (≈ 25.2 µg/mL) | 100 µM (≈ 403 µg/mL) | CC[C@H](C)[C@@H]1NC(=O)CNC(=O)[C@H](CC(=O)O)NC(=O)[C@@](C)(NC(=O)[C@@H](NC(=O)[C@H](CC(N)=O)NC(=O)[C@H](CCC(N)=O)NC(=O)CNC(=O)[C@@H](NC(=O)[C@H](CCCCN)NC(=O)[C@H](CCC(=O)O)NC(=O)[C@@H](NC(=O)[C@H](CCCCN)NC(=O)[C@H](CCCCN)NC(=O)[C@H](Cc2ccccc2)NC(=O)[C@H](CC(C)C)NC(=O)[C@H](CCCCN)NC(=O)[C@H](Cc2c[nH]c3ccccc23)NC(=O)[C@H](CCCCN)NC(C)=O)[C@@H](C)CC)C(C)C)[C@@H](C)CC)CCC/C=C\CCC[C@@](C)(C(=O)N[C@@H](CCCCN)C(=O)N[C@@H](C)C(=O)NCC(=O)N2CCC[C@H]2C(=O)N[C@@H](C)C(=O)N[C@H](C(=O)N[C@@H](C)C(=O)N[C@H](C(=O)N[C@H](C(=O)NCC(=O)N[C@@H](CCC(N)=O)C(=O)N[C@@H](C)C(=O)N[C@H](C(=O)N[C@@H](CCC(N)=O)C(=O)N[C@H](C(=O)N[C@@H](C)C(=O)N[C@@H](CCCCN)C(N)=O)[C@@H](C)CC)[C@@H](C)O)C(C)C)C(C)C)C(C)C)NC1=O (Ac-KWKLFKKIEKVGQNI[S5]DGI[S5]KAGPAVAVVGQATQIAK-NH2; staple (Z) 16-20) |
| > 100 µM | > 100 µM | > 100 µM | CC[C@H](C)[C@H](NC(=O)CNC(=O)[C@H](CC(=O)O)NC(=O)[C@H](CCCNC(=N)N)NC(=O)[C@@H](NC(=O)[C@]1(C)CCC/C=C\CCC[C@](C)(NC(=O)[C@H](CCC(=O)O)NC(=O)[C@@H](NC(=O)[C@H](CCCCN)NC(=O)[C@H](CCCCN)NC(=O)[C@H](Cc2ccccc2)NC(=O)[C@H](CC(C)C)NC(=O)[C@H](CCCCN)NC(=O)[C@H](Cc2c[nH]c3ccccc23)NC(=O)[C@H](CCCCN)NC(C)=O)[C@@H](C)CC)C(=O)N[C@@H](C(C)C)C(=O)NCC(=O)N[C@@H](CCC(N)=O)C(=O)N1)[C@@H](C)CC)C(=O)N[C@H](C(=O)N[C@@H](CCCCN)C(=O)N[C@@H](C)C(=O)NCC(=O)N1CCC[C@H]1C(=O)N[C@@H](C)C(=O)N[C@H](C(=O)N[C@@H](C)C(=O)N[C@H](C(=O)N[C@H](C(=O)NCC(=O)N[C@@H](CCC(N)=O)C(=O)N[C@@H](C)C(=O)N[C@H](C(=O)N[C@@H](CCC(N)=O)C(=O)N[C@H](C(=O)N[C@@H](C)C(=O)N[C@@H](CCCCN)C(N)=O)[C@@H](C)CC)[C@@H](C)O)C(C)C)C(C)C)C(C)C)[C@@H](C)CC (Ac-KWKLFKKIE[S5]VGQ[S5]IRDGIIKAGPAVAVVGQATQIAK-NH2; staple (Z) 10-14) |
| > 100 µM | > 100 µM | > 100 µM | CC[C@H](C)[C@H](NC(=O)[C@H](CCC(N)=O)NC(=O)[C@@H](NC(=O)[C@H](C)NC(=O)[C@H](CCC(N)=O)NC(=O)CNC(=O)[C@@H](NC(=O)[C@@H](NC(=O)[C@H](C)NC(=O)[C@@H](NC(=O)[C@H](C)NC(=O)[C@@H]1CCCN1C(=O)CNC(=O)[C@H](C)NC(=O)[C@H](CCCCN)NC(=O)[C@@H](NC(=O)[C@@H](NC(=O)[C@]1(C)CCC/C=C\CCC[C@](C)(NC(=O)[C@H](CCC(N)=O)NC(=O)CNC(=O)[C@@H](NC(=O)[C@H](CCCCN)NC(=O)[C@H](CCC(=O)O)NC(=O)[C@@H](NC(=O)[C@H](CCCCN)NC(=O)[C@H](CCCCN)NC(=O)[C@H](Cc2ccccc2)NC(=O)[C@H](CC(C)C)NC(=O)[C@H](CCCCN)NC(=O)[C@H](Cc2c[nH]c3ccccc23)NC(=O)[C@H](CCCCN)NC(C)=O)[C@@H](C)CC)C(C)C)C(=O)N[C@@H]([C@@H](C)CC)C(=O)N[C@@H](CCCNC(=N)N)C(=O)N[C@@H](CC(=O)O)C(=O)N1)[C@@H](C)CC)[C@@H](C)CC)C(C)C)C(C)C)C(C)C)[C@@H](C)O)C(=O)N[C@@H](C)C(=O)N[C@@H](CCCCN)C(N)=O (Ac-KWKLFKKIEKVGQ[S5]IRD[S5]IIKAGPAVAVVGQATQIAK-NH2; staple (Z) 14-18) |

More lines, now with the values behind:

| SMILES | MIC [1] | MIC [2] | MIC [3] |
| --- | --- | --- | --- |
| CC[C@H](C)[C@H](NC(=O)CNC(=O)[C@H](CC(=O)O)NC(=O)[C@H](CCCNC(=N)N)NC(=O)[C@@H](NC(=O)[C@H](CC(N)=O)NC(=O)[C@]1(C)CCC/C=C\CCC[C@](C)(NC(=O)[C@@H](NC(=O)[C@H](CCCCN)NC(=O)[C@H](CCCCN)NC(=O)[C@H](Cc2ccccc2)NC(=O)[C@H](CC(C)C)NC(=O)[C@H](CCCCN)NC(=O)[C@H](Cc2c[nH]c3ccccc23)NC(=O)[C@H](CCCCN)NC(C)=O)[C@@H](C)CC)C(=O)N[C@@H](CCCCN)C(=O)N[C@@H](C(C)C)C(=O)NCC(=O)N1)[C@@H](C)CC)C(=O)N[C@H](C(=O)N[C@@H](CCCCN)C(=O)N[C@@H](C)C(=O)NCC(=O)N1CCC[C@H]1C(=O)N[C@@H](C)C(=O)N[C@H](C(=O)N[C@@H](C)C(=O)N[C@H](C(=O)N[C@H](C(=O)NCC(=O)N[C@@H](CCC(N)=O)C(=O)N[C@@H](C)C(=O)N[C@H](C(=O)N[C@@H](CCC(N)=O)C(=O)N[C@H](C(=O)N[C@@H](C)C(=O)N[C@@H](CCCCN)C(N)=O)[C@@H](C)CC)[C@@H](C)O)C(C)C)C(C)C)C(C)C)[C@@H](C)CC (Ac-KWKLFKKI[S5]KVG[S5]NIRDGIIKAGPAVAVVGQATQIAK-NH2; staple (Z) 9-13) | 1.56 µM (≈ 6.3 µg/mL) | 6.25 µM (≈ 25.2 µg/mL) | > 100 µM |
| CC[C@H](C)[C@H](NC(=O)CNC(=O)[C@H](CC(=O)O)NC(=O)[C@H](CCCNC(=N)N)NC(=O)[C@@H](NC(=O)[C@H](CC(N)=O)NC(=O)[C@H](CCC(N)=O)NC(=O)CNC(=O)[C@@H](NC(=O)[C@H](CCCCN)NC(=O)[C@]1(C)CCC/C=C\CCC[C@](C)(NC(=O)[C@H](CC(C)C)NC(=O)[C@H](CCCCN)NC(=O)[C@H](Cc2c[nH]c3ccccc23)NC(=O)[C@H](CCCCN)NC(C)=O)C(=O)N[C@@H](CCCCN)C(=O)N[C@@H](CCCCN)C(=O)N[C@@H]([C@@H](C)CC)C(=O)N1)C(C)C)[C@@H](C)CC)C(=O)N[C@H](C(=O)N[C@@H](CCCCN)C(=O)N[C@@H](C)C(=O)NCC(=O)N1CCC[C@H]1C(=O)N[C@@H](C)C(=O)N[C@H](C(=O)N[C@@H](C)C(=O)N[C@H](C(=O)N[C@H](C(=O)NCC(=O)N[C@@H](CCC(N)=O)C(=O)N[C@@H](C)C(=O)N[C@H](C(=O)N[C@@H](CCC(N)=O)C(=O)N[C@H](C(=O)N[C@@H](C)C(=O)N[C@@H](CCCCN)C(N)=O)[C@@H](C)CC)[C@@H](C)O)C(C)C)C(C)C)C(C)C)[C@@H](C)CC (Ac-KWKL[S5]KKI[S5]KVGQNIRDGIIKAGPAVAVVGQATQIAK-NH2; staple (Z) 5-9) | 1.56 µM (≈ 6.27 µg/mL) | 6.25 µM (≈ 25.1 µg/mL) | > 100 µM |
| CC[C@H](C)[C@H](NC(=O)CNC(=O)[C@H](CC(=O)O)NC(=O)[C@H](CCCNC(=N)N)NC(=O)[C@@H](NC(=O)[C@H](CC(N)=O)NC(=O)[C@H](CCC(N)=O)NC(=O)CNC(=O)[C@@H](NC(=O)[C@H](CCCCN)NC(=O)[C@H](CCC(=O)O)NC(=O)[C@@H](NC(=O)[C@H](CCCCN)NC(=O)[C@H](CCCCN)NC(=O)[C@]1(C)CCC/C=C\CCC[C@](C)(NC(C)=O)C(=O)N[C@@H](Cc2c[nH]c3ccccc23)C(=O)N[C@@H](CCCCN)C(=O)N[C@@H](CC(C)C)C(=O)N1)[C@@H](C)CC)C(C)C)[C@@H](C)CC)C(=O)N[C@H](C(=O)N[C@@H](CCCCN)C(=O)N[C@@H](C)C(=O)NCC(=O)N1CCC[C@H]1C(=O)N[C@@H](C)C(=O)N[C@H](C(=O)N[C@@H](C)C(=O)N[C@H](C(=O)N[C@H](C(=O)NCC(=O)N[C@@H](CCC(N)=O)C(=O)N[C@@H](C)C(=O)N[C@H](C(=O)N[C@@H](CCC(N)=O)C(=O)N[C@H](C(=O)N[C@@H](C)C(=O)N[C@@H](CCCCN)C(N)=O)[C@@H](C)CC)[C@@H](C)O)C(C)C)C(C)C)C(C)C)[C@@H](C)CC (Ac-[S5]WKL[S5]KKIEKVGQNIRDGIIKAGPAVAVVGQATQIAK-NH2; staple (Z) 1-5) | > 100 µM | 12.5 µM (≈ 50.3 µg/mL) | > 100 µM |

Reference: ChEMBL document CHEMBL6115030, “Systematic All-Hydrocarbon Stapling Analysis for Cecropin A Generates a Potent and Stable Antimicrobial Peptide” (J Med Chem, 2025)
